Experimental findings from US8809328B2, “Imidazole derivative” (National University Corporation Shizuoka University, priority 2011, dated 2014) are described below.

Format in all cases: in vivo
For assay [1], the system named is rice (Nipponbare) (Oryza sativa L. cv. Nipponbare). Description: Influence of AOH and 3-methyl-AOH on rice seedlings in test tube culture fluid (Example 12). Particulars: 0.2 mM in culture fluid, 28° C., one week. On the procedure:
Sterilized seeds of rice (Nipponbare) (Oryza sativa L. cv. Nipponbare) were allowed to sprout at 28° C. in three days. The sprouted seeds (four seeds per test tube) were cultivated in a test tube, in which a control culture fluid, a culture fluid to which 0.2 mM of AOH was added, or a culture fluid to which 0.2 mM of 3-methyl-AOH was added and was placed, at 28° C. for a week. The control culture fluid comprises 0.5 mM of NH4NO3, 0.3 mM of Na2HPO4, 0.15 mM of K2SO4, 0.2 mM of MgCl2, 0.1 mM of CaCl2, 23 μM of Fe-ethylenediaminetetraacetic acid (Fe-EDTA), 25 μM of H3BO3, 4.5 μM of MnSO4, 0.15 μM of CuSO4, 0.35 μM of ZnSO4, and 0.05 μM of Na2MoO4. The culture fluid was replaced with new culture fluid every other day. After cultivation, the length of shoots and roots was measured. […] (In FIG. 8, “*” indicates P value <0.05, and “**” indicates P value <0.01. n=16.). In contrast, 3-methyl-AOH gave no influence on extension of the shoots.

Assay [2] deals with Zoysiagrass (Agrostis stolonifera). Briefly: Zoysiagrass cultivated on agar medium added with AHX. The following applies: agar medium with 1 mM AHX, 30 days, vs control section.
The test system of the next assay is Rice (Oryza sativa). Description: Rice cultivated in culture fluid added with AHX. Particulars: culture fluid with 0.2 mM AHX, 14 days, vs control section.
Assay [3] has as its system rice (Nipponbare) (Oryza sativa L. cv. Nipponbare). Description: Influence of AHX or AOH on rice seedlings in test tube culture fluid (Example 6). Particulars: 50, 200 or 1000 μM in culture fluid, 28° C., one week, FIG. 4. As to the method: Sterilized seeds of rice (Nipponbare) (Oryza sativa L. cv. Nipponbare) were allowed to sprout at 28° C. in three days. The sprouted seeds (four seeds per test tube) were cultivated in a test tube, in which a control culture fluid or a culture fluid to which AHX or AOH was added to different concentrations and was placed, at 28° C. for a week. AOH that was produced according to the method of Example 5 was used. The control culture fluid comprises 0.5 mM of NH4NO3, 0.3 mM of Na2HPO4, 0.15 mM of K2SO4, 0.2 mM of MgCl2, 0.1 mM of CaCl2, 23 μM of Fe-ethylenediaminetetraacetic acid (Fe-EDTA), 25 μM of H3BO3, 4.5 μM of MnSO4, 0.15 μM of CuSO4, 0.35 μM of ZnSO4, and 0.05 μM of Na2MoO4. As for the culture fluids containing AHX or AOH, AHX or AOH is added to the above described control culture fluids such that the final concentration becomes 50 μM, 200 μM or 1000 μM. The culture fluid was replaced with new culture fluid every other day. After cultivation, the length of shoots and roots was measured.

`Cn1nnc2[nH]c(=O)[nH]c2c1=O` [3-methyl-AOH, 3-methyl-3H-imidazo[4,5-d][1,2,3]triazin-4,6(5H,7H)-dione]: in assay [1], the Extension of shoots result is reported as “no influence”. Further, the Extension of roots result in assay [1] (FIG. 8) was “had extension activity for roots”.

As for `O=c1[nH]nnc2[nH]cnc12` [AHX, 7H-imidazo[4,5-d][1,2,3]triazin-4(3H)-one], the Extension of shoots result (in assay [2]; in the assay on Rice (Oryza sativa)) was “clearly promoted” throughout. For the same molecule, in assay [3], the “Extension of shoots and roots” value is “promoted extension of shoots and roots concentration-dependently”.
